Experimental data from patent US11230535B2, “CFTR regulators and methods of use thereof” (THE REGENTS OF THE UNIVERSITY OF CALIFORNIA, priority 2015, dated 2022).

The molecules below were run against human wild-type CFTR (Homo sapiens, UniProt P13569) (assay: Cell-based plate reader (YFP iodide influx) assay of CFTR function). Conditions: N,N-diethyl-N′-aryl-1,3,5-triazine diamine analogs; read-out: EC50 for CFTR activation.
Set-up: expressed in transfected cells; host or cells: Fischer rat thyroid (FRT) cells stably co-expressing YFP-H148Q
Protocol: The initiate rate of I^− influx was computed by determined using exponential regression. All compound plates contained negative controls (DMSO vehicle) and positive controls (20 μM forskolin).
High-throughput screening. […] The initiate rate of I^− influx was computed by determined using exponential regression. All compound plates contained negative controls (DMSO vehicle) and positive controls ([…] forskolin).
Platereader assays of chloride channel function. CFTR activity was assayed as described. […] I^− influx was measured in a plate reader with initial baseline read for 2 s and then for 12 s after rapid addition of an I^−-containing solution. TMEM16A activity was assayed similarly as described using FRT cells co-expressing YFP and TMEM16A. Activity of non-TMEM16A CaCC was assayed as described in HT-29 cells expressing YFP. In each assay initial rates of I^− influx were computed as a linear measure of channel function.

Chain of human wild-type CFTR (P13569 whole entry): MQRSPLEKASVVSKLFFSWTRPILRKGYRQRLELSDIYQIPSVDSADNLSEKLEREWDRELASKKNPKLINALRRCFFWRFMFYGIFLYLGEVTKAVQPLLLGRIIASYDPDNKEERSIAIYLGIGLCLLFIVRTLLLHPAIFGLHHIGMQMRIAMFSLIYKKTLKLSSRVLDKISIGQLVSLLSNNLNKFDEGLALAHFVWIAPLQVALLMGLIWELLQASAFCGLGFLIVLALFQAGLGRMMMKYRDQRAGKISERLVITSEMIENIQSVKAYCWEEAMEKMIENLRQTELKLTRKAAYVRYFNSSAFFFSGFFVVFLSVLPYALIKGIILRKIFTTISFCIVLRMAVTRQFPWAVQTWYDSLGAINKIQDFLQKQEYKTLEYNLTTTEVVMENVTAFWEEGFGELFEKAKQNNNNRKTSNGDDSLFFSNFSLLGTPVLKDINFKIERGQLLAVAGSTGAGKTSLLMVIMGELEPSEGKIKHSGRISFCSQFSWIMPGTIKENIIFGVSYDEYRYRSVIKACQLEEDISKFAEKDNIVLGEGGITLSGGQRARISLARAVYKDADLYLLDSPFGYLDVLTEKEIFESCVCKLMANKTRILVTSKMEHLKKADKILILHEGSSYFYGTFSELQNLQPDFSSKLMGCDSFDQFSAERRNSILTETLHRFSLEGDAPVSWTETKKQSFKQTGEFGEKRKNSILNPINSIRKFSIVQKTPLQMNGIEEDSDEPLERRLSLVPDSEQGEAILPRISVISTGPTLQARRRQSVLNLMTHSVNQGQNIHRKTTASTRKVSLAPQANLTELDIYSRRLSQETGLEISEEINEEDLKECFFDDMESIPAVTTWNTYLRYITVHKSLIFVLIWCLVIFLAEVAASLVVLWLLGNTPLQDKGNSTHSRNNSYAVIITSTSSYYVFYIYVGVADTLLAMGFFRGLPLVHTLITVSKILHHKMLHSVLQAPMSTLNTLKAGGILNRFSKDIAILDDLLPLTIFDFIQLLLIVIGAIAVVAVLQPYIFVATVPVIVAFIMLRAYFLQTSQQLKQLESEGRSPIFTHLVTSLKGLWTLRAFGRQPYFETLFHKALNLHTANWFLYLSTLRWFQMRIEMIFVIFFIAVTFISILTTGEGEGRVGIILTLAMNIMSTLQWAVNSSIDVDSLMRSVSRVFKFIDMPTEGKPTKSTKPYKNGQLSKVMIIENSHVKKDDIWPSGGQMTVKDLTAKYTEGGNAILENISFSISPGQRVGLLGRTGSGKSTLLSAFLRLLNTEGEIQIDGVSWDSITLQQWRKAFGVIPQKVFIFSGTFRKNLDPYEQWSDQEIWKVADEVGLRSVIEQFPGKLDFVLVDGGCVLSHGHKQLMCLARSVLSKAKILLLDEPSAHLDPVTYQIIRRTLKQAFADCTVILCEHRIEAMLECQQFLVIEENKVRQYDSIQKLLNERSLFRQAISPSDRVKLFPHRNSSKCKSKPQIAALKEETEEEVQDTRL

EC50	Structure (SMILES)
0.16 µM	CCN(CC)c1nc(Nc2cccc(C(=O)O)c2)nc(OC(C(F)(F)F)C(F)(F)F)n1 [6a, 3-({4-(diethylamino)-6-[(1,1,1,3,3,3-hexafluoropropan-2-yl)oxy]-1,3,5-triazin-2-yl}amino)benzoic acid]
0.14 µM	CCN(CC)c1nc(Nc2cccc(F)c2)nc(OC(C(F)(F)F)C(F)(F)F)n1 [6b, N,N-Diethyl-N′-(3-fluorophenyl)-6-[(1,1,1,3,3,3-hexafluoropropan-2-yl)oxy]-1,3,5-triazine-2,4-diamine]
0.9 µM	CCN(CC)c1nc(Nc2ccc(C(=O)O)cc2)nc(OC(C(F)(F)F)C(F)(F)F)n1 [6e, 4-({4-(Diethylamino)-6-[(1,1,1,3,3,3-hexafluoropropan-2-yl)oxy]-1,3,5-triazin-2-yl}amino)benzoic acid]
0.7 µM	CCN(CC)c1nc(Nc2ccc(F)cc2)nc(OC(C(F)(F)F)C(F)(F)F)n1 [6f, N,N-Diethyl-N′-(4-fluorophenyl)-6-[(1,1,1,3,3,3-hexafluoropropan-2-yl)oxy]-1,3,5-triazine-2,4-diamine]
0.5 µM	CCN(CC)c1nc(Nc2cccc(C(=O)O)c2)nc(OCC(F)(F)C(F)F)n1 [7b, 3-{[4-(Diethylamino)-6-(2,2,3,3-tetrafluoropropoxy)-1,3,5-triazin-2-yl]amino}benzoic acid]
1.6 µM	CCN(CC)c1nc(Nc2cccc(F)c2)nc(OCC(F)(F)C(F)F)n1 [7c, N,N-Diethyl-N′-(3-fluorophenyl)-6-(2,2,3,3-tetrafluoropropoxy)-1,3,5-triazine-2,4-diamine]

Structure (SMILES)	EC50
CCN(CC)c1nc(Nc2ccc([N+](=O)[O-])cc2)nc(OC(C(F)(F)F)C(F)(F)F)n1 [6g, N,N-Diethyl-6-[(1,1,1,3,3,3-hexafluoropropan-2-yl)oxy]-N-(4-nitrophenyl)-1,3,5-triazine-2,4-diamine]	18 µM
CCN(CC)c1nc(Nc2ccccc2)nc(OCC(F)(F)C(F)F)n1 [7a, N,N-Diethyl-N′-phenyl-6-(2,2,3,3-tetrafluoropropoxy)-1,3,5-triazine-2,4-diamine]	2 µM
CCN(CC)c1nc(Nc2cccc(Cl)c2)nc(OCC(F)(F)C(F)F)n1 [7d, N′-(3-Chlorophenyl)-N,N-diethyl-6-(2,2,3,3-tetrafluoropropoxy)-1,3,5-triazine-2,4-diamine]	5.4 µM
CCN(CC)c1nc(Nc2cccc([N+](=O)[O-])c2)nc(OCC(F)(F)C(F)F)n1 [7e, N,N-Diethyl-N′-(3-nitrophenyl)-6-(2,2,3,3-tetrafluoropropoxy)-1,3,5-triazine-2,4-diamine]	1.2 µM
CCN(CC)c1nc(Nc2ccc(F)cc2)nc(OCC(F)(F)C(F)F)n1 [7g, N,N-Diethyl-N′-(4-fluorophenyl)-6-(2,2,3,3-tetrafluoropropoxy)-1,3,5-triazine-2,4-diamine]	4.8 µM

Same assay, conditions: bicyclic aniline analogs; read-out: EC50

EC50	Structure (SMILES)
2.8 µM	CCN(CC)c1nc(Nc2ccc3cn[nH]c3c2)nc(OC(C(F)(F)F)C(F)(F)F)n1 [6i, N,N-Diethyl-6-[(1,1,1,3,3,3-hexafluoropropan-2-yl)oxy]-N-(1H-indazol-6-yl)-1,3,5-triazine-2,4-diamine]

Same assay, conditions: commercial analogs; FRT cells with YFP and wildtype CFTR, 125 nM forskolin

Structure (SMILES)	% Activation
CNc1nc(Nc2ccc(C(C)=O)cc2)nc(OC(C(F)(F)F)C(F)(F)F)n1 [K001]	32%
C=CCNc1nc(Nc2ccc(F)cc2)nc(OC(C(F)(F)F)C(F)(F)F)n1 [K002]	63%
CC(C)(C)Nc1nc(Nc2ccc(OC(F)(F)F)cc2)nc(OCC(F)(F)F)n1 [K003]	16%
FC(F)(F)C(Oc1nc(Nc2cccc3ccccc23)nc(OC(C(F)(F)F)C(F)(F)F)n1)C(F)(F)F [K004]	16%
O=[N+]([O-])c1ccccc1Nc1nc(OCC(F)(F)F)nc(OCC(F)(F)F)n1 [K005]	29%
CNc1nc(Nc2ccccc2C(F)(F)F)nc(OC(C(F)(F)F)C(F)(F)F)n1 [K007]	21%
COc1nc(Nc2ccccc2)nc(Nc2ccccc2)n1 [K008]	32%
CCOc1nc(Nc2ccccc2)nc(NC2CCCC2)n1 [K009]	57%
FC(F)(F)C(Oc1nc(Nc2ccccc2)nc(OC(C(F)(F)F)C(F)(F)F)n1)C(F)(F)F [K010]	21%
Cc1ccc(Nc2nc(OC(C(F)(F)F)C(F)(F)F)nc(OC(C(F)(F)F)C(F)(F)F)n2)cc1 [K011]	20%
Cc1ccccc1Nc1nc(OC(C(F)(F)F)C(F)(F)F)nc(OC(C(F)(F)F)C(F)(F)F)n1 [K012]	19%
O=[N+]([O-])c1ccccc1Nc1nc(OC(C(F)(F)F)C(F)(F)F)nc(OC(C(F)(F)F)C(F)(F)F)n1 [K013]	15%
O=[N+]([O-])c1cccc(Nc2nc(OC(C(F)(F)F)C(F)(F)F)nc(OC(C(F)(F)F)C(F)(F)F)n2)c1 [K014]	18%
O=[N+]([O-])c1ccc(Nc2nc(OC(C(F)(F)F)C(F)(F)F)nc(OC(C(F)(F)F)C(F)(F)F)n2)cc1 [K015]	6%
CC(=O)c1ccc(Nc2nc(OC(C(F)(F)F)C(F)(F)F)nc(OC(C(F)(F)F)C(F)(F)F)n2)cc1 [K016]	19%
FC(F)(F)C(Oc1nc(Nc2cccnc2)nc(OC(C(F)(F)F)C(F)(F)F)n1)C(F)(F)F [K017]	16%
FC(F)(F)COc1nc(Nc2ccccc2)nc(OCC(F)(F)F)n1 [K018]	60%

Continued, values first:

% Activation	Structure (SMILES)
28%	Cc1ccccc1Nc1nc(OCC(F)(F)F)nc(OCC(F)(F)F)n1 [K019]
37%	CNc1nc(OCC(F)(F)F)nc(N(c2ccccc2)c2ccccc2)n1 [K020]
16%	COc1nc(NCCN2CCOCC2)nc(Nc2ccccc2)n1 [K021]
53%	COc1nc(Nc2ccc(Cl)cc2)nc(NC(C)(C)C)n1 [K022]
41%	COc1nc(Nc2ccc([N+](=O)[O-])cc2)nc(OC)n1 [K023]
64%	CNc1nc(Nc2ccc(OC(F)(F)Cl)cc2)nc(OCC(F)(F)F)n1 [K024]
16%	FC(F)(F)COc1nc(Nc2ccc(OC(F)(F)Cl)cc2)nc(OCC(F)(F)F)n1 [K026]
20%	CC(C)Nc1nc(Nc2ccc([N+](=O)[O-])cc2)nc(OC(C(F)(F)F)C(F)(F)F)n1 [K027]
23%	COc1nc(Nc2ccc(OC)c(Cl)c2)nc(OC)n1 [K028]
9%	CC(C)(C)Nc1nc(Nc2ccc(OC(F)(F)Cl)cc2)nc(OCC(F)(F)F)n1 [K029]
16%	CCCCNc1nc(Nc2ccc(OC(F)(F)F)cc2)nc(OCC(F)(F)F)n1 [K030]
61%	COc1nc(Nc2ccc(O)cc2)nc(OC(C(F)(F)F)C(F)(F)F)n1 [K031]
22%	COc1nc(NCCO)nc(Nc2ccc(Cl)cc2)n1 [K033]
73%	C=CCNc1nc(Nc2ccc(Cl)cc2)nc(OC)n1 [K034]
55%	COc1nc(Nc2ccc(Cl)cc2)nc(NC2CCCCC2)n1 [K035]
46%	CCCCCCNc1nc(Nc2ccc(Cl)cc2)nc(OCC)n1 [K036]
53%	CCOc1nc(Nc2ccc(Cl)cc2)nc(NC2CCCCC2)n1 [K038]
27%	CCCCCCNc1nc(Nc2ccc(I)cc2)nc(OC)n1 [K039]
17%	COc1nc(NCCO)nc(Nc2ccc(I)cc2)n1 [K040]
35%	C=CCNc1nc(Nc2ccc(I)cc2)nc(OC)n1 [K041]

% Activation	Structure (SMILES)
15%	COc1nc(Nc2ccc(I)cc2)nc(OC2CCCCC2)n1 [K042]
19%	CCOc1nc(NCCO)nc(Nc2ccc(I)cc2)n1 [K043]
55%	C=CCNc1nc(Nc2ccc(I)cc2)nc(OCC)n1 [K044]
15%	CCOc1nc(NCCN2CCOCC2)nc(Nc2ccc(I)cc2)n1 [K045]
16%	CCOc1nc(Nc2ccc(I)cc2)nc(NC2CCCCC2)n1 [K046]
17%	COc1nc(NCCO)nc(Nc2ccc([N+](=O)[O-])cc2)n1 [K047]
46%	C=CCNc1nc(Nc2ccc([N+](=O)[O-])cc2)nc(OC)n1 [K048]
28%	CCOc1nc(NCCO)nc(Nc2ccc([N+](=O)[O-])cc2)n1 [K049]
66%	C=CCNc1nc(Nc2ccc([N+](=O)[O-])cc2)nc(OCC)n1 [K050]
45%	CCOc1nc(Nc2ccc([N+](=O)[O-])cc2)nc(NC2CCCCC2)n1 [K051]
24%	C=CCNc1nc(Nc2ccc(I)cc2C)nc(OCC)n1 [K053]
14%	CCOc1nc(Nc2ccc(I)cc2C)nc(NC2CCCCC2)n1 [K054]
42%	CN(C)c1nc(OC(C(F)(F)F)C(F)(F)F)nc(N(c2ccccc2)c2ccccc2)n1 [K055]
38%	CCC(C)Nc1nc(Nc2ccc([N+](=O)[O-])cc2)nc(OC(C(F)(F)F)C(F)(F)F)n1 (stereo not drawn) [K056]
28%	FC(F)(F)COc1nc(N2CCCCC2)nc(N(c2ccccc2)c2ccccc2)n1 [K057]
37%	C=CCNc1nc(OC(C(F)(F)F)C(F)(F)F)nc(N(c2ccccc2)c2ccccc2)n1 [K058]
90%	C=CCNc1nc(Nc2cccc([N+](=O)[O-])c2)nc(OC(C(F)(F)F)C(F)(F)F)n1 [K059]
38%	COc1ccc(Nc2nc(NC3CCCCC3)nc(OC(C(F)(F)F)C(F)(F)F)n2)cc1 [K060]
31%	Cc1ccc(Nc2nc(OC(C(F)(F)F)C(F)(F)F)nc(N3CCCCC3)n2)cc1 [K061]

Same assay, conditions: commercial analogs; read-out: EC50 (full-dose response assay, compounds >80% activation)

EC50	Structure (SMILES)
0.75 µM	C=CCNc1nc(Nc2cccc([N+](=O)[O-])c2)nc(OC(C(F)(F)F)C(F)(F)F)n1 [K059]
